{"source": "paper PMC6458995", "about": "“MAP4K4 Inhibition Promotes Survival of Human Stem Cell-Derived Cardiomyocytes and Reduces Infarct Size In Vivo” (Cell Stem Cell, 2019)", "assay_in_all_cases": "Dundee kinase panel", "assay_type_in_all_cases": "biochemical", "conditions_in_all_cases": "for remaining activity at 1 µM: read-out: residual activity", "key": {"FGF-R1": {"molecular_target": "T1, FGF-R1 (Homo sapiens, UniProt P11362)", "T1 construct": "lines 1-140) and Reaction Biology", "T1 sequence (P11362 22-822)": "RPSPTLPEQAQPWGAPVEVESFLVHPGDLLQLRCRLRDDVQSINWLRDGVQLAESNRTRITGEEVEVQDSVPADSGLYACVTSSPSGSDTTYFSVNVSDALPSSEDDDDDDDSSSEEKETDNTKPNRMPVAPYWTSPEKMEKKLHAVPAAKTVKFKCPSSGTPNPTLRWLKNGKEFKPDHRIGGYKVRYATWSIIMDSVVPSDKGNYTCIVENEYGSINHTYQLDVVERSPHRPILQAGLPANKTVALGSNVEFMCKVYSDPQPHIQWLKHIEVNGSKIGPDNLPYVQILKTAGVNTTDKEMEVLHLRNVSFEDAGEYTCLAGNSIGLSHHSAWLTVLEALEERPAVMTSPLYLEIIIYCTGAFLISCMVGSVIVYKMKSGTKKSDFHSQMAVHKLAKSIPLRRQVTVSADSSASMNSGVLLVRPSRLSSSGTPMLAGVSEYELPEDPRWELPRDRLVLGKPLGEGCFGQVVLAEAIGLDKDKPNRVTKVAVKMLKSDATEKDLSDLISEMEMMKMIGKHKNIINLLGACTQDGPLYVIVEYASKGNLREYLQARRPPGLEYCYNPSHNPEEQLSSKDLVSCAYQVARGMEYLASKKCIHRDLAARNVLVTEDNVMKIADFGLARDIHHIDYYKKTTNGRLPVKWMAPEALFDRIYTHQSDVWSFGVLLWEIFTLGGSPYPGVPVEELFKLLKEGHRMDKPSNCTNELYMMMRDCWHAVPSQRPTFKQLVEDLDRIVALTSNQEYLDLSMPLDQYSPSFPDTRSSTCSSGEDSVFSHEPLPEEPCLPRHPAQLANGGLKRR", "experimental": "(§1) Compounds were screened at 1 μM. For key hits, pIC50 values were then determined by HTRF as above. […] Stability in mouse and human liver microsomes was determined by Cyprotex."}, "PKCz": {"molecular_target": "T2, PKCz (Homo sapiens, UniProt Q05513)", "T2 construct": "lines 1-140) and Reaction Biology", "T2 sequence (Q05513 1-592)": "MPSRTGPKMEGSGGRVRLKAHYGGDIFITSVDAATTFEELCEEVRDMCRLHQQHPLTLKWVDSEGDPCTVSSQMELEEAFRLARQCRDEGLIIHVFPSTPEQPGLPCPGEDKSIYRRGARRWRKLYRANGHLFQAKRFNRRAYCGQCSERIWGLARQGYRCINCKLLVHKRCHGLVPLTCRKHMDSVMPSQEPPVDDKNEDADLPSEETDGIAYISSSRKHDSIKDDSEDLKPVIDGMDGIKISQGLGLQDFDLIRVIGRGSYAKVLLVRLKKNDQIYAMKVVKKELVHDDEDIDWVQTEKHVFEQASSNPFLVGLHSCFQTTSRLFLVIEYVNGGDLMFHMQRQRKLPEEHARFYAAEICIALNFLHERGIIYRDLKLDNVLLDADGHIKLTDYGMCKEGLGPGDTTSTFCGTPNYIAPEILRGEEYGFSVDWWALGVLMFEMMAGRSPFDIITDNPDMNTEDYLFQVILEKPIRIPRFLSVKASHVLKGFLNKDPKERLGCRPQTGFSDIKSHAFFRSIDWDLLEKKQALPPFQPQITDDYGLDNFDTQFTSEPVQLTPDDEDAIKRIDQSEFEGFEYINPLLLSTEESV", "experimental": "as §1"}, "DYRK1A": {"molecular_target": "T3, DYRK1A (Homo sapiens, UniProt Q13627)", "T3 construct": "lines 1-140) and Reaction Biology", "experimental": "(§2) Kinase selectivity profiling was performed by the International Centre for Kinase Profiling, MRC Protein Phosphorylation and Ubiquitylation Unit (141 kinases; Premier Screen, http://www.kinase-screen.mrc.ac.uk), using a [γ-^33P]ATP filter binding assay ([Bain et al., 2007]). Compounds were screened at 1 μM. For key hits, pIC50 values were then determined by HTRF as above. More complete kinome profiling was performed by Reaction Biology (376 kinases). Stability in mouse and human liver microsomes was determined by Cyprotex."}, "ERK5": {"molecular_target": "T4, ERK5 (Homo sapiens, UniProt Q13164)", "T4 construct": "lines 1-140) and Reaction Biology", "T4 sequence (Q13164 whole entry)": "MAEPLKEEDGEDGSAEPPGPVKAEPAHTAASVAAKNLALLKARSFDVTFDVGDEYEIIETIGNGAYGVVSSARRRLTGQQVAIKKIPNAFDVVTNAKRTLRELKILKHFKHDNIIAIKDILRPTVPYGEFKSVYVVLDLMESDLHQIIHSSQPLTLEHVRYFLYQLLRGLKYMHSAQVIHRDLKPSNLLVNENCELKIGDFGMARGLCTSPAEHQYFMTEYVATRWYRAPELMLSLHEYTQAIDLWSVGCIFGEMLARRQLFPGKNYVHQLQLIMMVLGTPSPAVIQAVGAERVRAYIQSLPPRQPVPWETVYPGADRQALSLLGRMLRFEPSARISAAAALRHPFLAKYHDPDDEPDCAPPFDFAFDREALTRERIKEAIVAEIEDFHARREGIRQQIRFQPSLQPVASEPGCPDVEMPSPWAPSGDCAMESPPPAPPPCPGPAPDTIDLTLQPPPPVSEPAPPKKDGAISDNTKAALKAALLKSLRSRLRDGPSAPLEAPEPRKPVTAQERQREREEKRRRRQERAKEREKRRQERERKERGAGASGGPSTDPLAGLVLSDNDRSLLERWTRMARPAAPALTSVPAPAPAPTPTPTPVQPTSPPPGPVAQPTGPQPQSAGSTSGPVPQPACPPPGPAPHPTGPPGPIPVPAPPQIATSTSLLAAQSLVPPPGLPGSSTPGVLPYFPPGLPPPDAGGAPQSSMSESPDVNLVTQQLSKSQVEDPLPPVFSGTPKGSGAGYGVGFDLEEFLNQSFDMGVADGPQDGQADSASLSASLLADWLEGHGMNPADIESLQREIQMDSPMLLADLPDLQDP", "experimental": "as §2"}, "MAP4K5": {"molecular_target": "T5, MAP4K5 (Homo sapiens, UniProt Q9Y4K4)", "T5 construct": "lines 1-140) and Reaction Biology", "T5 sequence (Q9Y4K4 whole entry)": "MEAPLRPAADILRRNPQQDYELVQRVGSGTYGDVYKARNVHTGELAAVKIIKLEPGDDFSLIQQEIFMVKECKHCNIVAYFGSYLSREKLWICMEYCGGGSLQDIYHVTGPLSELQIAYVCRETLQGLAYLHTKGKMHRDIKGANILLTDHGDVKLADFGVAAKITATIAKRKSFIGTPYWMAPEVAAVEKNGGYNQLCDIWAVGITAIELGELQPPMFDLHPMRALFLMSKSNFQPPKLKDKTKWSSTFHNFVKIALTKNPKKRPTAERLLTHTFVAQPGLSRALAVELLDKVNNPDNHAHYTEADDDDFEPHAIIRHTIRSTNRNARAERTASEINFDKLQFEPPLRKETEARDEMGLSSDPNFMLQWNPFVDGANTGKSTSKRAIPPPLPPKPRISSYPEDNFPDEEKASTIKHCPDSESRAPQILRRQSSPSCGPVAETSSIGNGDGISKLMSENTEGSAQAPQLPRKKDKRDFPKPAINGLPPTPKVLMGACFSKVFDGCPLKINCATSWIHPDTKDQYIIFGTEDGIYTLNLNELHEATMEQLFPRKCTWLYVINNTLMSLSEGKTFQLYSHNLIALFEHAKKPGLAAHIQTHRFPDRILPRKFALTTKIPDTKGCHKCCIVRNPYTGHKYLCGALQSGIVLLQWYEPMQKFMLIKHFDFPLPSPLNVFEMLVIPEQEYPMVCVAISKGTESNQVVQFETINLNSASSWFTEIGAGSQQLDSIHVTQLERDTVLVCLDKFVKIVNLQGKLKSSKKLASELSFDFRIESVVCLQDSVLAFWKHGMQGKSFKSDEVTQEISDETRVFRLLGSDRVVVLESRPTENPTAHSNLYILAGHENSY", "experimental": "as §2"}, "MARK1": {"molecular_target": "T6, MARK1 (Homo sapiens, UniProt Q9P0L2)", "T6 construct": "lines 1-140) and Reaction Biology", "T6 sequence (Q9P0L2 whole entry)": "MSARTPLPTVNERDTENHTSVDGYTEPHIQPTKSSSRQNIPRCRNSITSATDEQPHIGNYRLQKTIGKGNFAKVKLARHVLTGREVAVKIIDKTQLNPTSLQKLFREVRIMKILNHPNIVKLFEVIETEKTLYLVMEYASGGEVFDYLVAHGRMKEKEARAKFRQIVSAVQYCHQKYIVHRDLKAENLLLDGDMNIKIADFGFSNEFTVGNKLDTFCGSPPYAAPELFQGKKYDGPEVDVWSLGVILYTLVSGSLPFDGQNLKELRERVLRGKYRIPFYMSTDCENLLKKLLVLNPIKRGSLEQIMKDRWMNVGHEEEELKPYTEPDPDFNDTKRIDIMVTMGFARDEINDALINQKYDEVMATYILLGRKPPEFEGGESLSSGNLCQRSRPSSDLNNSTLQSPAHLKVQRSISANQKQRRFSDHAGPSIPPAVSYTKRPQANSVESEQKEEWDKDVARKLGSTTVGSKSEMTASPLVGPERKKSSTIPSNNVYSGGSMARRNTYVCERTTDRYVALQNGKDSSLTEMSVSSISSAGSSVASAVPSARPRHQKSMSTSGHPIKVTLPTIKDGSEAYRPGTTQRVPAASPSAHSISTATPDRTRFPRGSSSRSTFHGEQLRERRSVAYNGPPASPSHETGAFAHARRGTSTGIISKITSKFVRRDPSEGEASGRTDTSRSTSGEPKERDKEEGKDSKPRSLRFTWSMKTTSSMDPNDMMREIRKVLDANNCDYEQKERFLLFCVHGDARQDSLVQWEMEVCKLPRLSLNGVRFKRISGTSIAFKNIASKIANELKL", "experimental": "as §2"}, "MINK1": {"molecular_target": "T7, MINK1 (Homo sapiens, UniProt Q8N4C8)", "T7 construct": "lines 1-140) and Reaction Biology", "experimental": "as §2"}, "Src": {"molecular_target": "T8, Src (Homo sapiens, UniProt P12931)", "T8 construct": "lines 1-140) and Reaction Biology", "T8 sequence (P12931 whole entry)": "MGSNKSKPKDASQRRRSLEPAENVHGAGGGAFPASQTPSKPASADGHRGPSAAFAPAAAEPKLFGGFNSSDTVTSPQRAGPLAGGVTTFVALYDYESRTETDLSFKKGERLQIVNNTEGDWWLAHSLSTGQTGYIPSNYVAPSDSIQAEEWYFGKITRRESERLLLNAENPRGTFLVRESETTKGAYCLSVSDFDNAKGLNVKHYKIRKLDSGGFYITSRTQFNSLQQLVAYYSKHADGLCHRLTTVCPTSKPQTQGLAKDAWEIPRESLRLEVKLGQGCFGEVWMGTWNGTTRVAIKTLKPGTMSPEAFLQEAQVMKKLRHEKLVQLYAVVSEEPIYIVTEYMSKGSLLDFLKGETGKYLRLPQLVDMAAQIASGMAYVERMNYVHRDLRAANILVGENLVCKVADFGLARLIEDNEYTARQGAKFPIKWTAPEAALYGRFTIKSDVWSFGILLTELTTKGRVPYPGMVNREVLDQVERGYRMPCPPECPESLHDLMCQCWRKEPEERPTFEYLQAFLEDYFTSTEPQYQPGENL", "experimental": "as §2"}, "TGFBR1": {"molecular_target": "T9, TGFBR1 (Homo sapiens, UniProt P36897)", "T9 construct": "lines 1-140) and Reaction Biology", "T9 sequence (P36897 34-503)": "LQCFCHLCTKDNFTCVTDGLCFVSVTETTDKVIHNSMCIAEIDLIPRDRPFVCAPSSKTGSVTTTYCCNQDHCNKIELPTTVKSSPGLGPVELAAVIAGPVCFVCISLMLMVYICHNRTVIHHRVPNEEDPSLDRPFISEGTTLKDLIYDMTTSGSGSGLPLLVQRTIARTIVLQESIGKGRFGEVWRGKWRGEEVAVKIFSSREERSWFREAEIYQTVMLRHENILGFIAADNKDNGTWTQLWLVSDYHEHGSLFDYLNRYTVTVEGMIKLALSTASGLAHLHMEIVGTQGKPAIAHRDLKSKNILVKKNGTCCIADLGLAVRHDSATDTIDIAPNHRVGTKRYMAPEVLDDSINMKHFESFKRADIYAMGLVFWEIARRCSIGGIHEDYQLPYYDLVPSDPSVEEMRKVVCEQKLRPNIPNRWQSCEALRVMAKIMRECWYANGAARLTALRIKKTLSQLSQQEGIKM", "experimental": "as §2"}, "ULK2": {"molecular_target": "T10, ULK2 (Homo sapiens, UniProt Q8IYT8)", "T10 construct": "lines 1-140) and Reaction Biology", "T10 sequence (Q8IYT8 1-1036)": "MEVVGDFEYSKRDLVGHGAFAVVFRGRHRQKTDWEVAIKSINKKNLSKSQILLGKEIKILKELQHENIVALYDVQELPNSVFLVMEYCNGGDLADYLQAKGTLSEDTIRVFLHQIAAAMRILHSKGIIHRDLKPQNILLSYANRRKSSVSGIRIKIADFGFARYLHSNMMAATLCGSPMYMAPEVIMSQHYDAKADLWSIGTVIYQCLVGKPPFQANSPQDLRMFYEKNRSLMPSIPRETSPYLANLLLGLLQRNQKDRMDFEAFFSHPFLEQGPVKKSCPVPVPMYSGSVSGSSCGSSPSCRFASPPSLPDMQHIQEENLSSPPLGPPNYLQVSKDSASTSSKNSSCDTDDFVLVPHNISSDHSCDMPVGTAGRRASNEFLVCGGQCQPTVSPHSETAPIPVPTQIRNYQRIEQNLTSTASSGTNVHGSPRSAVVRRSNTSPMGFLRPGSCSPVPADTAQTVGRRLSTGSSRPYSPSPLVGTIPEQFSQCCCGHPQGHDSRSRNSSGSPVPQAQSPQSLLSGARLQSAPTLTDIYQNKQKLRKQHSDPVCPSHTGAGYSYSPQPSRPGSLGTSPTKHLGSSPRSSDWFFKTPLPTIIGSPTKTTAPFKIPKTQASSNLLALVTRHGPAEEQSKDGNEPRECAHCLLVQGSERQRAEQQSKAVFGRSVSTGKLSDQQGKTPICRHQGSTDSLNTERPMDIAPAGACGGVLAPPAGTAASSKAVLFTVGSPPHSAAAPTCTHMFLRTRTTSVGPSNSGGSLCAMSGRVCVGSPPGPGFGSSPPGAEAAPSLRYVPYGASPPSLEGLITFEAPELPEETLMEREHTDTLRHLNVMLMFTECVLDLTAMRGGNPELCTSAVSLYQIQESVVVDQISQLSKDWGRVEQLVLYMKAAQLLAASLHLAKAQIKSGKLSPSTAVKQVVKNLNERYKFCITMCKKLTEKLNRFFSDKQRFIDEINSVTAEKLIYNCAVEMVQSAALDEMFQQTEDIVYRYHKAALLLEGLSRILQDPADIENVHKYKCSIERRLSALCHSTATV", "experimental": "as §2"}}, "data": [{"smiles": "COCCOc1ccc(-c2cn(-c3ccccc3)c3nc[nH]c(=O)c23)cc1", "note": "[DMX-5804, 5-[4-(2-methoxy-ethoxy)-phenyl]-7-phenyl-3,7-dihydro-pyrrolo[2,3-d]pyrimidin-4-one]", "values": [{"measurement": "remaining activity at 1 µM", "setting": "FGF-R1", "result": 69, "unit": "%"}, {"measurement": "remaining activity at 1 µM", "setting": "PKCz", "result": 121, "unit": "%"}, {"measurement": "remaining activity at 1 µM", "setting": "DYRK1A", "result": 110, "unit": "%"}, {"measurement": "remaining activity at 1 µM", "setting": "ERK5", "result": 115, "unit": "%"}, {"measurement": "remaining activity at 1 µM", "setting": "MAP4K5", "result": 44, "unit": "%"}, {"measurement": "remaining activity at 1 µM", "setting": "MARK1", "result": 81, "unit": "%"}, {"measurement": "remaining activity at 1 µM", "setting": "MINK1", "result": 2, "unit": "%"}, {"measurement": "remaining activity at 1 µM", "setting": "Src", "result": 92, "unit": "%"}, {"measurement": "remaining activity at 1 µM", "setting": "TGFBR1", "result": 95, "unit": "%"}, {"measurement": "remaining activity at 1 µM", "setting": "ULK2", "result": 89, "unit": "%"}]}, {"smiles": "Oc1ncnc2c1c(-c1ccccc1)cn2-c1ccccc1", "note": "[F1386-0303, 5,7-diphenyl-7H-pyrrolo[2,3-d]pyrimidin-4-ol]", "values": [{"measurement": "remaining activity at 1 µM", "setting": "FGF-R1", "result": 99, "unit": "%"}, {"measurement": "remaining activity at 1 µM", "setting": "PKCz", "result": 108, "unit": "%"}, {"measurement": "remaining activity at 1 µM", "setting": "DYRK1A", "result": 108, "unit": "%"}, {"measurement": "remaining activity at 1 µM", "setting": "ERK5", "result": 93, "unit": "%"}, {"measurement": "remaining activity at 1 µM", "setting": "MAP4K5", "result": 82, "unit": "%"}, {"measurement": "remaining activity at 1 µM", "setting": "MARK1", "result": 87, "unit": "%"}, {"measurement": "remaining activity at 1 µM", "setting": "MINK1", "result": 11, "unit": "%"}, {"measurement": "remaining activity at 1 µM", "setting": "Src", "result": 118, "unit": "%"}, {"measurement": "remaining activity at 1 µM", "setting": "TGFBR1", "result": 141, "unit": "%"}, {"measurement": "remaining activity at 1 µM", "setting": "ULK2", "result": 86, "unit": "%"}]}, {"smiles": "Nc1ncc(C(=O)NC2CN(C(=O)C3CC3)C2)c2ccc(-c3cccc(F)c3)nc12", "note": "[GNE-495]", "values": [{"measurement": "residual activity", "setting": "FGF-R1; 1 μM", "result": 119, "unit": "%"}, {"measurement": "residual activity", "setting": "PKCz; 1 μM", "result": 82, "unit": "%"}, {"measurement": "residual activity", "setting": "DYRK1A; 1 μM", "result": 55, "unit": "%"}, {"measurement": "residual activity", "setting": "ERK5; 1 μM", "result": 96, "unit": "%"}, {"measurement": "residual activity", "setting": "MAP4K5; 1 μM", "result": 45, "unit": "%"}, {"measurement": "residual activity", "setting": "MARK1; 1 μM", "result": 57, "unit": "%"}, {"measurement": "residual activity", "setting": "MINK1; 1 μM", "result": 2, "unit": "%"}, {"measurement": "residual activity", "setting": "Src; 1 μM", "result": 122, "unit": "%"}, {"measurement": "residual activity", "setting": "TGFBR1; 1 μM", "result": 94, "unit": "%"}, {"measurement": "residual activity", "setting": "ULK2; 1 μM", "result": 100, "unit": "%"}]}, {"smiles": "O=C1Nc2ccc(I)cc2/C1=C/c1cc(Br)c(O)c(Br)c1", "note": "[GW5074]", "values": [{"measurement": "remaining activity at 1 µM", "setting": "FGF-R1", "result": 89, "unit": "%"}, {"measurement": "remaining activity at 1 µM", "setting": "PKCz", "result": 88, "unit": "%"}]}, {"smiles": "O=C1Cc2c([nH]c3ccc(Br)cc23)-c2ccccc2N1", "note": "[Kenpaullone]", "values": [{"measurement": "remaining activity at 1 µM", "setting": "FGF-R1", "result": 108, "unit": "%"}, {"measurement": "remaining activity at 1 µM", "setting": "PKCz", "result": 105, "unit": "%"}]}]}
